Laboratory results published in patent US20030195240A1, “Pharmaceutical compositions comprising proton pump inhibitors and gastrin/cholecystokinin receptor ligands” (priority 2000, published 2003).

Tested on: ECL cells
Test: labelling index of ECL cells (HDC+PCNA double labelling) in oxyntic mucosa after 14 days once-daily treatment
Format: in vivo, male SPF Wistar rats
Conditions: rats, 25 mg/kg p.o. once daily for 14 days; compared with control group
Method: This was measured according to the following experimental protocol. 40 male SPF Wistar rats (200 g) were divided into 4 treatment groups and 2 strata. The treatment of the 20 rats in the second stratum started 2 weeks after the treatment of the first stratum. The design of the study was completely randomised double blind with individual blinding; all rats were placed in a separate cage. Animals had continuous access to water and food. Animals were treated once daily during 14 days: [table] After removal of the fundus, the stomach were rinsed with phosphate buffered saline prior to fixation with 4% formalin in Millonig buffer. After 4 hours immersion in fixative solutions at room temperature, tissue was rinsed in phosphate buffered saline (PBS), dehydrated and embedded in paraffin using the Leitz paraffin embedding station (Leitz TP 1050; Germany) dehydration module and paraffin embedding module (Leitz EG 1160; Germany). Cross sections (3 μm thick) of the oxyntic part of the stomach were made at 3 levels, each separated by a distance of 400 μm. The following indirect immunofluorescence labeling method was used: removal of paraffin and rehydratation of the sections followed by a blocking step primary antibodies: polyclonal guinea pig anti-histidine decarboxylase, 1/2000 (from Euro-Diagnostica) and monoclonal mouse anti PCNA 1/2500 (Clone PC10 from Sigma). […]

With `COCCCOc1ccnc(C[S+]([O-])c2nc3ccccc3[nH]2)c1C` (stereo not shown) [rebeprazole, 2-[[4-(3-methoxypropoxy)-3-methylpyridin-2-yl]methylsulfinyl]-1H-benzimidazole] as the compound, how does the “labelling index of ECL cells, Mann-Whitney test P, treated group versus control group” value read?
The value was 0.04.
